In US12509482B2, “3′-ketoglycoside compound for the slow release of a volatile alcohol” (GLYCOSCIENCE, S.L., priority 2020, dated 2025):
“And” between values parts separate entries of the source, which are not always exact repeats. Identical values can stand only once. Each block holds one molecule with its values, some of them ahead of it.

Columns and labels:
[1] = system: mosquito Culex pipiens pallens; settings: Park et al., J. Am. Mosquito Control Assoc., 2005; cited from earlier work
[2] = system: Aedes albopictus mosquitoes; experiment: Example 33: in vitro mosquito testing, landings on treated Hemotek membranes; assay type: in vivo; settings: for Landing (total number of landings over the 20-minute exposure): 50 mg on membrane, 15 females, duplicate membranes
Protocol: Aedes albopictus mosquitoes were reared and maintained at 26±2° C. temperature, ≥80%±10 relative humidity, with a 12 h:12 h (light:dark) photoperiod.
Populations of adult mosquitoes were allowed to feed on sugar solution (10%) but were not blood fed before tests.
Geranyl-O-β-D-3′-ketoglucopyranoside, obtained according to Example 4, (100 mg) was dissolved in polyethylene glycol 200 (PEG200) (0.2 mL) with gentle heating to give Solution 1. Then 200 mg of L-arginine was dissolved in 2 mL of a 3:7 w/v solution of anhydrous calcium chloride in water to give Solution 2. Solution 2 (0.2 mL) was added to all of Solution 1 to give Solution 3. The contents of Solution 3 were thoroughly mixed and half of the resultant solution was applied to parallel 5 cm diameter artificial Hemotek membranes covered with paper kitchen towel of equal diameter. Parallel duplicate membranes, covered with paper kitchen towel, were also each treated with 0.2 mL of a 1:1 v/v solution of PEG200/Solution 2 and a further two parallel membranes were left untreated.
The membranes were heated over a reservoir of sheeps' blood at 37° C. using a Hemotek system and periodically exposed to 5- to 7-day old active host-seeking female mosquitoes, selected and collected using an aspirator and organized into batches (15 females) in plastic test containers. The heating was switched off between exposures to maintain membrane integrity and switched on 5 minutes prior to each exposure. Each membrane was exposed to a fresh container of female mosquitos for 20 minutes immediately after membrane preparation and again after 2 h, 4 h, 6 h and 8 h. At each time point, the number of mosquitos landing on each membrane immediately after exposure and 5, 10 and 20 minutes after exposure was counted and the total number of landings over each 20-minute exposure summed and tabulated.

[3] = Example 31: stability of geranyl-O-β-D-3′-ketoglucopyranoside in D2O at 50° C.; assay type: physicochemical; settings: 5 mg in D2O (1 mL), 2 weeks
Protocol: Geranyl-O-β-D-3′-ketoglucopyranoside, obtained according to Example 4 (5 mg) was added to D2O (1 mL) and heated at 50° C.

[4] = Example 32: release of geraniol from geranyl-O-β-D-3′-ketoglucopyranoside (PEG200, L-arginine, calcium chloride solution) on a paper kitchen towel disc, room temperature; assay type: physicochemical
Protocol: Geranyl-O-β-D-3′-ketoglucopyranoside, obtained according to Example 4, (50 mg) was dissolved in polyethylene glycol 200 (PEG200) (0.1 mL) with gentle heating. 0.1 mL of a solution of L-arginine (10 mg) dissolved in 0.1 mL of a 3:7 w/v solution of anhydrous calcium chloride in water was then added and thoroughly mixed. The resultant solution was spread over a 5 cm diameter paper kitchen towel disc and left to stand at room temperature. The smell of released geraniol evolved from the disc was then assessed with time as strong, medium or weak and reported in Table XIX:
After 19 h, the reaction mixture was dissolved in D4-MeOH and analysed by 1H NMR.

[5] = Example 16: release of geraniol from geranyl-O-β-D-3′-ketoglucopyranoside, 0.1 M deuterated phosphate buffer, 10% D6-DMSO, 37° C., presence and absence of fresh skin wash; assay type: physicochemical
Protocol: In this example the rate of release of geraniol from (2R,3S,6R)-2-(((E)-3,7-dimethylocta-2,6-dien-1-yl)oxy)-3,5-dihydroxy-6-(hydroxymethyl)tetrahydro-4H-pyran-4-one (geranyl-O-β-D-3′-ketoglucopyranoside) in 0.1 M deuterated phosphate buffer solutions of differing pH containing 10% D6-DMSO or in D2O containing 10% D6-DMSO at 37° C. in the presence and absence of fresh skin wash was determined.
1 M Stock solutions of sodium dihydrogen phosphate and disodium hydrogen phosphate were prepared in deuterated water (D2O).
A stock solution of 25 mg of geranyl-O-β-D-3′-ketoglucopyranoside in 0.5 mL of D6-DMSO were prepared.
In a typical experiment, a stock solution of fresh skin wash suspension was prepared by swabbing a 25 cm^2 areas of cheek skin of a human volunteer by robustly rubbing the area with a cotton wool gauze (5×5 cm^2) soaked in D2O (12.5 mL) for 1 minute and then resuspending the gauze in the D2O solution, rapidly shaking and removing the gauze after squeezing out as much liquid as possible with a spatula. 1 M Stock solutions phosphate buffer, pH 5.7 and 7.0 were prepared by appropriately mixing 1 M stock phosphate salts solutions to the correct pH as determined using a calibrated pH meter.
Half of each buffer stock solution was diluted ten times with D2O and the other with the above skin washing stock solution to give a 0.1 M phosphate buffer in D2O with a final pH of 5.7, 0.1 M phosphate buffer in D2O with a final pH of 7.0, a 0.1 M phosphate buffer in skin wash solution with a final pH of 5.7 and a 0.1 M phosphate buffer in skin wash solution with a final pH of 7.0.
To three parallel reaction vials, where indicated in the reaction table below, was added 0.45 mL of low or high pH 0.1 M phosphate buffer in D2O or 0.45 mL of low or high pH 0.1M phosphate buffer in skin wash solution followed by 0.05 mL of the glycoside substrate solutions in D6-DMSO and the mixtures incubated by shaking at 37° C. After times indicated in table below, the mixtures where analysed by ^1H-NMR with 128 scans using a 400 MHz instrument.

[6] = Example 17: release of geraniol from a 40 mg/mL suspension of geranyl-O-β-D-3′-ketoglucopyranoside, 0.1 M phosphate buffer pH 7, 10% DMSO, 37° C.; assay type: physicochemical; settings: after 3 d
Protocol: In this example the rate of release of geraniol from a 40 mg/mL suspension of (2R,3S,6R)-2-(((E)-3,7-dimethylocta-2,6-dien-1-yl)oxy)-3,5-dihydroxy-6-(hydroxymethyl)tetrahydro-4H-pyran-4-one (geranyl-O-β-D-3′-ketoglucopyranoside) in 0.1 M deuterated phosphate buffer solution, pH 7, containing 10% DMSO at 37° C. was determined.
In a stoppered glass vial, geranyl-O-β-D-3′-ketoglucopyranoside (20 mg) was dissolved in D6-DMSO (0.05 mL) then diluted with 0.1 M sodium phosphate buffer, pH 7.0 (0.45 mL) and the resultant suspension incubated by shaking at 37° C.

[7] = Description: alcohol release from model compounds (III), (IV) and compound (V) in buffer, water and skin washings; assay type: physicochemical

Structure (SMILES): Cc1ccc(C(C)C)cc1O [Carvacrol, 2-methyl-5-propan-2-ylphenol]
repellency compared with DEET (in words) [1]: outperformed N,N-diethyl-m-methylbenzamide (DEET)

stability in D2O by 1H NMR (in words) [3]: stable
Geraniol strength by smell ([4]; 0 h): strong
Geraniol strength by smell ([4]; 0.3 h): strong
Geraniol strength by smell ([4]; 2 h): strong
Geraniol strength by smell ([4]; 3 h): strong
Geraniol strength by smell ([4]; 4 h): strong
Geraniol strength by smell ([4]; 6 h): strong
Geraniol strength by smell ([4]; 11 h): medium
Geraniol strength by smell ([4]; 19 h): medium
% Conversion by 1H-NMR ([5]; 0.1M buffer in D2O, final pH 5.7, 19 h): 3%
% Conversion by 1H-NMR ([5]; 0.1M buffer in D2O, final pH 5.7, 41 h): 6%
% Conversion by 1H-NMR ([5]; 0.1M buffer in D2O, final pH 5.7, 72 h): 10%
% Conversion by 1H-NMR ([5]; 0.1M buffer in D2O, final pH 7.0, 19 h): 9%
% Conversion by 1H-NMR ([5]; 0.1M buffer in D2O, final pH 7.0, 41 h): 28%
% Conversion by 1H-NMR ([5]; 0.1M buffer in D2O, final pH 7.0, 72 h): 51%
% Conversion by 1H-NMR ([5]; 0.1M buffer in skin wash solution, final pH 7.0, 19 h): 10%
% Conversion by 1H-NMR ([5]; 0.1M buffer in skin wash solution, final pH 7.0, 41 h): 31%
% Conversion by 1H-NMR ([5]; 0.1M buffer in skin wash solution, final pH 7.0, 72 h): 48%
extent of conversion to geraniol by 1H-NMR [6]: approximately 50%
smell of geraniol [6]: a strong smell of geraniol was observed
degraded ([7]; after 3 days): approximately 50%
Structure (SMILES): CC(C)=CCC/C(C)=C/CO[C@@H]1O[C@H](CO)[C@@H](O)C(=O)[C@H]1O [geranyl-O-β-D-3′-ketoglucopyranoside, (2R,3S,6R)-2-(((E)-3,7-dimethylocta-2,6-dien-1-yl)oxy)-3,5-dihydroxy-6-(hydroxymethyl)tetrahydro-4H-pyran-4-one]
Landing (total number of landings over the 20-minute exposure) ([2]; 6 h, listed as GS0010): 4 and 3
Landing (total number of landings over the 20-minute exposure) ([2]; 8 h): 0
repellent effect (conclusion in words) ([2]; in vivo): a repellent effect is provided
landings compared with diluent treated or untreated membranes (in words) ([2]; over 8 h): significantly fewer landings than observed with diluent treated or untreated membranes
pH dependence of geraniol release (in words) ([5]; 37° C., presence or absence of skin wash): only slowly degraded at pH 5.8, but releases geraniol at a significantly higher rate at pH 7.4 that is unchanged in the presence or absence of skin wash
degradation rate compared with compound (III) (in words) [7]: degraded significantly faster than compound (III)
aroma of geraniol on opening the stoppered reaction vessel ([7]; 20 mg/mL mixture, after 3 d): a very pungent aroma of geraniol was immediately noticeable
